Experimental data published in patent publication EP1832576A1, “4-Biarylyl-1-phenolyzetidin-2-ones” (Microbia Inc., priority 2003, dated 2005).

Tested on: cholesterol absorption from the intestine
Assay: In Vivo Assay of Hypolipidemic Agents using the Rat Cholesterol Absorption Model
Parameters: species or system Female Sprague-Dawley rats
Settings: po; for inhibition at 1 mg/kg: versus vehicle only control
Procedure, shortened: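 Fasted female Sprague-Dawley rats (150–250 g, 4–6/group) received compound orally in olive oil or vehicle. Thirty minutes later they were given 3–5 µCi ^3H-cholesterol orally in olive oil, and serum ^3H was counted at 3 h. Percent inhibition versus vehicle control is at a fixed dose; ED50 is the dose giving half-maximal effect on serum ^3H.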

[1] = Table 1, perorally, 3H levels in serum three hours after 3H-cholesterol
[2] = Table 2, perorally, 3H levels in serum three hours after 3H-cholesterol

SMILES | inhibition at 1 mg/kg [1] [%] | other results
O=C1[C@H](CC[C@H](O)c2ccc(F)cc2)[C@@H](c2ccc(-c3cccc(P(=O)(O)O)c3)cc2O)N1c1ccccc1 [Example 61, (4'-{(2S,3R)-3-[(3S)-3-(4-Fluorophenyl)-3-hydroxypropyl]-4-oxo-1-phenylazetidin-2-yl}-3'-hydroxybiphenyl-3-yl)phosphonic acid] | – | inhibition at 5 mg/kg (Table 2, footnote mark 3 (defined only under Table 1: 5 mg/kg), perorally): 58%
CCCCOc1cccc(-c2ccc([C@@H]3[C@@H](CC[C@H](O)c4ccc(F)cc4)C(=O)N3c3ccc(F)cc3)cc2)c1 [Example 109, (3R,4S)-4-(3'-butoxybiphenyl-4-yl)-1-(4-fluorophenyl)-3-[(3S)-3-(4-fluorophenyl)-3-hydroxypropyl]azetidin-2-one] | 52 | –
CC(C)Oc1cccc(-c2ccc([C@@H]3[C@@H](CC[C@H](O)c4ccc(F)cc4)C(=O)N3c3ccc(F)cc3)cc2)c1 [Example 105, (3R,4S)-1-(4-fluorophenyl)-3-[(3S)-3-(4-fluorophenyl)-3-hydroxypropyl]-4-(3'-isopropoxybiphenyl-4-yl)azetidin-2-one] | 15 | –
O=C1[C@H](CC[C@H](O)c2ccc(F)cc2)[C@@H](c2ccc(-c3cccc(C[C@@H]4O[C@H](CO)[C@@H](O)[C@H](O)[C@H]4O)c3)cc2)N1c1ccc(F)cc1 [Example 117, 2,6-anhydro-1-deoxy-1-(4'-{(2S,3R)-1-(4-fluorophenyl)-3-[(3S)-3-(4-fluorophenyl)-3-hydroxypropyl]-4-oxoazetidin-2-yl}biphenyl-3-yl)-D-glycero-D-gulo-heptitol] | 26 | –
O=C1[C@H](CC[C@H](O)c2ccc(F)cc2)[C@@H](c2ccc(-c3cccc(P(=O)(O)O)c3)cc2)N1c1ccccc1 [Example 56, (4'-{(2S,3R)-3-[(3S)-3-(4-Fluorophenyl)-3-hydroxypropyl]-4-oxo-1-phenylazetidin-2-yl}biphenyl-3-yl)phosphonic acid] | 59 | –
O=C1C(CCC(O)c2ccc(F)cc2)C(c2ccc(-c3ccc(CO)cc3)cc2)N1c1ccc(F)cc1 (stereo not drawn) [Example 18] | 48 | –
O=C1[C@H](CC[C@H](O)c2ccc(F)cc2)[C@@H](c2ccc(-c3cccc(OC[C@@H](O)[C@@H](O)[C@H](O)[C@@H](O)CO)c3)cc2)N1c1ccc(F)cc1 [Example 78, 6-O-(4'-{(2S,3R)-1-(4-Fluorophenyl)-3-[(3S)-3-(4-fluorophenyl)-3-hydroxypropyl]-4-oxoazetidin-2-yl}biphenyl-3-yl)-D-glucitol] | 51 | –
O=Cc1ccc(-c2ccc([C@@H]3[C@@H](CC[C@H](O)c4ccc(F)cc4)C(=O)N3c3ccc(F)cc3)cc2)cc1 [Example 99, 4'-{(2S,3R)-1-(4-fluorophenyl)-3-[(3S)-3-(4-fluorophenyl)-3-hydroxypropyl]-4-oxoazetidin-2-yl}-biphenyl-4-carbaldehyde] | 38 | –
Nc1cccc(-c2ccc([C@@H]3[C@@H](CC[C@H](O)c4ccc(F)cc4)C(=O)N3c3ccc(F)cc3)cc2)c1 [Example 86, (3R,4S)-4-(3'-aminabiphenyl-4-yl)-1-(4-fluorophenyl)-3-[(3S)-3-(4-fluorophenyl)-3-hydroxypropyl]azetidin-2-one] | 35 | –
CN(C)c1cccc(-c2ccc([C@@H]3[C@@H](CC[C@H](O)c4ccc(F)cc4)C(=O)N3c3ccc(F)cc3)cc2)c1 [Example 83, (3R,4S)-4-[3'-(dimethylamino)biphenyl-4-yl]-1-(4-fluorophenyl)-3-[(3 S)-3-(4-fluorophenyl)-3-hydroxypropyl]azetidin-2-one] | 38 | –
O=C1[C@H](CC[C@H](O)c2ccc(F)cc2)[C@@H](c2ccc(-c3cccc(OC[C@H]4OC(O)[C@H](O)[C@@H](O)[C@@H]4O)c3)cc2)N1c1ccc(F)cc1 (stereo partly drawn) [Example 76, 6-O-(4'-{(2S,3R)-1-(4-Fluorophenyl)-3-[(3S)-3-(4-fluorophenyl)-3-hydroxypropyl]-4-oxoazetidin-2-yl}biphenyl-3-yl)-D-glucopyranose] | 56 | –
O=C1[C@H](CC[C@H](O)c2ccc(F)cc2)[C@@H](c2ccc(-c3cccc(S(=O)(=O)O)c3)cc2)N1c1ccc(F)cc1 [Example 118, 4'-{(2S,3R)-1-(4-fluorophenyl)-3-[(3S)-3-(4-fluorophenyl)-3-hydroxypropyl]-4-oxoazetidin-2-yl}biphenyl-3-sulfonic acid] | 61 | –
Cc1cccc(-c2ccc([C@@H]3[C@@H](CC[C@H](O)c4ccc(F)cc4)C(=O)N3c3ccc(F)cc3)cc2)c1 [Example 93, (3R,4S)-1-(4-fluorophenyl)-3-[(3S)-3-(4-fluorophenyl)-3-hydroxypropyl]-4-(3'-methylbiphenyl-4-yl)azetidin-2-one] | 28 | –
O=C1[C@H](CC[C@H](O)c2ccc(F)cc2)[C@@H](c2ccc(-c3cccc(O)c3)cn2)N1c1ccccc1 [Example 49, (3R,4S)-3-[(3S)-3-(4-fluorophenyl)-3-hydroxypropyl]-4-[5-(3-hydroxyphenyl)pyridin-2-yl]-1-phenylazetidin-2-one] | – | inhibition at 1 mg/kg [2]: 30%
COc1cc(F)cc(-c2ccc([C@@H]3[C@@H](CC[C@H](O)c4ccc(F)cc4)C(=O)N3c3ccc(F)cc3)cc2)c1 [Example 111, (3R,4S)-4-(3'-fluoro-5'-methoxybiphenyl-4-yl)-1-(4-fluorophenyl)-3-[(3S)-3-(4-fluorophenyl)-3-hydroxypropyl]azetidin-2-one] | 72 | –
CSc1cccc(-c2ccc([C@@H]3[C@@H](CC[C@H](O)c4ccc(F)cc4)C(=O)N3c3ccc(F)cc3)cc2)c1 [Example 82, (3R,4S)-1-(4-fluorophenyl)-3-[(3S)-3-(4-fluorophenyl)-3-hydroxypropyl]-4-[3'-(methylthio)biphenyl-4-yl]azetidin-2-one] | 28 | –
COc1ccc(-c2ccc([C@@H]3[C@@H](CC[C@H](O)c4ccc(F)cc4)C(=O)N3c3ccc(F)cc3)cc2)c(OC)c1OC [Example 96, (3R,4S)-1-(4-fluorophenyl)-3-[(3S)-3-(4-fluorophenyl)-3-hydroxypropyl]-4-(2',3',4'-trimethoxybiphenyl-4-yl)azetidin-2-one] | 69 | –
O=C1[C@H](CC[C@H](O)c2ccc(F)cc2)[C@@H](c2ccc(-c3ccccc3)cc2)N1c1ccc(F)cc1 [Example 3, (3R,4S)-4-Biphenyl-4-yl-1-(4-fluorophenyl)-3-[(3S)-3-(4-fluorophenyl)-3-hydroxypropyl]azetidin-2-one] | – | inhibition at 10 mg/kg (Table 1, footnote 1, perorally, 10 mg/kg, 3H levels in serum three hours after 3H-cholesterol): 15%
COc1cc(-c2ccc([C@@H]3[C@@H](CC[C@H](O)c4ccc(F)cc4)C(=O)N3c3ccc(F)cc3)cc2)ccc1O [Example 102, (3R,4S)-1-(4-fluorophenyl)-3-[(3S)-3-(4-fluorophenyl)-3-hydroxypropyl]-4-(4'-hydroxy-3'-methoxybiphenyl-4-yl)azetidin-2-one] | 56 | –
O=Cc1cccc(-c2ccc([C@@H]3[C@@H](CC[C@H](O)c4ccc(F)cc4)C(=O)N3c3ccc(F)cc3)cc2)c1 [Example 13, 4'-{(2S,3R)-1-(4-fluorophenyl)-3-[(3S)-3-(4-fluorophenyl)-3-hydroxypropyl]-4-oxoazetidin-2-yl}biphenyl-3-carbaldehyde] | 70 | –
O=C1[C@H](CC[C@H](O)c2ccc(F)cc2)[C@@H](c2ccc(-c3ccc(S(=O)(=O)O)cc3)cc2O)N1c1ccccc1 [Example 128, Sodium 4'-{(2S,3R)-3-[(3S)-3-(4-fluorophenyl)-3-hydroxypropyl]-4-oxo-1-phenylazetidin-2-yl}-3'-hydroxybiphenyl-4-sulfonate] | – | inhibition at 1 mg/kg [2]: 60%
